Data reported in US10821115B2, “Compounds that inhibit Mcl-1 protein” (priority 2017, dated 2020).
Like-named read-outs stand apart in the source and are kept apart here.

Assays:
[1] = molecular target: recombinant human Mcl-1 (residues 171-327) / Bim interaction (Homo sapiens (Human), UniProt Q07820); experiment: biochemical; type: binding; details: read-out: Mcl-1 HTRF IC50
[2] = test system: human multiple myeloma cell line, OPM-2; experiment: Cell viability assay (OPM-2 10 FBS), CellTiter-Glo; type: cell-based
Method in brief: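 IC50 values come from 4-parameter logistic fits of luminescence signals reflecting cell viability. Treatment lasted 16 h at 37 °C in complete medium with 10% FBS, starting from 3000 cells/well.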

[3] = TR-FRET, Mcl-1(171-327) / biotin-Bim (51-76)
[4] = Homo sapiens, OPM-2, 16 h, read-out: OPM-2 10% FBS IC50 IP, OPM-2 cells, 10% FBS, 16 h, CellTiter-Glo
[5] = 0.1 nM Mcl-1(171-327), 0.05 nM biotin-Bim (51-76)
[6] = Homo sapiens, OPM-2, 16 h, read-out: OPM-2 10% FBS IC50 IP, OPM-2 cells, 10% FBS, 16 h incubation
[7] = read-out: OPM-2 10% FBS IC50 IP, OPM-2 cells, 10% FBS, 16 h, CellTiter-Glo

recombinant human Mcl-1 (residues 171-327) / Bim interaction, sequence (Q07820 171-327): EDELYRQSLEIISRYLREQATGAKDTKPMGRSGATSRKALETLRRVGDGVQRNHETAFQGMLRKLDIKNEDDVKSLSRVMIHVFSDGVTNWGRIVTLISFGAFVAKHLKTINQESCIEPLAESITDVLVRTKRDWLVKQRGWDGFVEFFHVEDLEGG

Compound	IC50 [1, 3]	IC50 [2, 4]	IC50 [1, 5]	IC50 [2, 6]	also measured
C[C@@H]1[C@@H](C)CCC[C@](O)(CCN(C)C)[C@@H]2CC[C@H]2CN2C[C@@]3(CCCc4cc(Cl)ccc43)COc3ccc(cc32)C(=O)NS1(=O)=O [Example 100088, (1S,3′R,6′R,7′S,11′S,12′R)-6-chloro-7′-(2-(dimethylamino)ethyl)-7′-hydroxy-11′,12′-dimethyl-3,4-dihydro-2H,15′H-spiro[naphthalene-1,22′-[20]oxa[13]thia[1,14]diazatetracyclo [14.7.2.0~3,6~.0~19,24~]pentacosa[16,18,24]trien]-15′-one 13′,13′-dioxide]	2.12 nM	1340 nM	–	–	–
C[C@@H]1[C@@H](C)C/C=C/[C@@](O)(CS(C)(=O)=O)[C@@H]2CC[C@H]2CN2C[C@@]3(CCCc4cc(Cl)ccc43)COc3ccc(cc32)C(=O)NS1(=O)=O [Example 100072, (1S,3′R,6′R,7′S,8′E,11′S,12′R)-6-chloro-7′-hydroxy-11′,12′-dimethyl-7′-((methylsulfonyl)methyl)-3,4-dihydro-2H,15′H-spiro[naphthalene-1,22′-[20]oxa[13]thia[1,14]diazatetracyclo [14.7.2.0~3,6~.0~19,24~]pentacosa[8,16,18,24]tetraen]-15′-one 13′,13′-dioxide]	0.451 nM	1720 nM	–	–	–
CNC[C@]1(OC)/C=C/C[C@H](C)[C@@H](C)S(=O)(=O)NC(=O)c2ccc3c(c2)N(C[C@@H]2CC[C@H]21)C[C@@]1(CCCc2cc(Cl)ccc21)CO3 [Example 65, (1S,3′R,6′R,7′S,8′E,11′S,12′R)-6-chloro-7′-methoxy-11′,12′-dimethyl-7′-((methylamino)methyl)-3,4-dihydro-2H,15′H-spiro[naphthalene-1,22′-[20]oxa[13]thia[1,14]diazatetracyclo [14.7.2.0~3,6~.0~19,24~]pentacosa[8,16,18,24]tetraen]-15′-one 13′,13′-dioxide]	–	–	0.451 nM	1500 nM	–
CC#C[C@@]1(O)/C=C/C[C@H](C)[C@@H](C)S(=O)(=O)NC(=O)c2ccc3c(c2)N(C[C@@H]2CC[C@H]21)C[C@@]1(CCCc2cc(Cl)ccc21)CO3 [Example 100498, (1S,3′R,6′R,7′R,8′E,11′S,12′R)-6-chloro-7′-hydroxy-11′,12′-dimethyl-7′-(1-propyn-1-yl)-3,4-dihydro-2H,15′H-spiro[naphthalene-1,22′-[20]oxa[13]thia[1,14]diazatetracyclo [14.7.2.0~3,6~.0~19,24~]pentacosa[8,16,18,24]tetraen]-15′-one 13′,13′-dioxide]	–	1660 nM	–	–	IC50 [1]: 0.885 nM
CO[C@]1(CN2CCN3CCCC[C@@H]3C2)/C=C/[C@H](C)[C@H](C)CS(=O)(=O)NC(=O)c2ccc3c(c2)N(C[C@@H]2CC[C@H]21)C[C@@]1(CCCc2cc(Cl)ccc21)CO3 [Example 161, (1S,3′R,6′R,7′R,8′E,10′S,11′S)-6-chloro-7′-methoxy-10′,11′-dimethyl-7′-((9aR)-octahydro-2H-pyrido[1,2-a]pyrazin-2-ylmethyl)-3,4-dihydro-2H,15′H-spiro[naphthalene-1,22′-[20]oxa[13]thia[1,14]diazatetracyclo [14.7.2.0~3,6~.0~19,24~]pentacosa[8,16,18,24]tetraen]-15′-one 13′,13′-dioxide]	–	–	0.094 nM	113 nM	–
CO[C@@]1(Cc2nc(CN3CCOCC3)c(C)o2)/C=C/C[C@H](C)[C@@H](C)S(=O)(=O)NC(=O)c2ccc3c(c2)N(C[C@@H]2CC[C@H]21)C[C@@]1(CCCc2cc(Cl)ccc21)CO3 [Example 100587, (1S,3′R,6′R,7′S,8′E,11′S,12′R)-6-chloro-7′-methoxy-11′,12′-dimethyl-7′-((5-methyl-4-(4-morpholinylmethyl)-1,3-oxazol-2-yl)methyl)-3,4-dihydro-2H,15′H-spiro[naphthalene-1,22′-[20]oxa[13]thia[1,14]diazatetracyclo [14.7.2.0~3,6~.0~19,24~]pentacosa[8,16,18,24]tetraen]-15′-one 13′,13′-dioxide]	0.136 nM	177 nM	–	–	–
CO[C@@]1(CN2CCCCC2)/C=C/C[C@H](C)[C@@H](C)S(=O)(=O)NC(=O)c2ccc3c(c2)N(C[C@@H]2CC[C@H]21)C[C@@]1(CCCc2cc(Cl)ccc21)CO3 [Example 75, (1S,3′R,6′R,7′S,8′E,11′S,12′R)-6-chloro-7′-methoxy-11′,12′-dimethyl-7′-(1-piperidinylmethyl)-3,4-dihydro-2H,15′H-spiro[naphthalene-1,22′-[20]oxa[13]thia[1,14]diazatetracyclo [14.7.2.0~3,6~.0~19,24~]pentacosa[8,16,18,24]tetraen]-15′-one 13′,13′-dioxide]	–	–	2.05 nM	1610 nM	–
CO[C@]1(CN2CCC(N3CCOCC3)CC2)/C=C/C[C@H](C)[C@@H](C)S(=O)(=O)NC(=O)c2ccc3c(c2)N(C[C@@H]2CC[C@H]21)C[C@@]1(CCCc2cc(Cl)ccc21)CO3 [Example 85, (1S,3′R,6′R,7′R,8′E,11′S,12′R)-6-chloro-7′-methoxy-11′,12′-dimethyl-7′-((4-(4-morpholinyl)-1-piperidinyl)methyl)-3,4-dihydro-2H,15′H-spiro[naphthalene-1,22′-[20]oxa[13]thia[1,14]diazatetracyclo [14.7.2.0~3,6~.0~19,24~]pentacosa[8,16,18,24]tetraen]-15′-one 13′,13′-dioxide]	–	–	0.491 nM	274 nM	–
COC[C@@H]1[C@@H](C)C/C=C/[C@@](CN2CCN(C3COC3)CC2)(OC)[C@@H]2CC[C@H]2CN2C[C@@]3(CCCc4cc(Cl)ccc43)COc3ccc(cc32)C(=O)NS1(=O)=O [Example 167, (1S,3′R,6′R,7′R,8′E,11′S,12′S)-6-chloro-7′-methoxy-12′-(methoxymethyl)-11′-methyl-7′-((4-(3-oxetanyl)-1-piperazinyl)methyl)-3,4-dihydro-2H,15′H-spiro[naphthalene-1,22′-[20]oxa[13]thia[1,14]diazatetracyclo [14.7.2.0~3,6~.0~19,24~]pentacosa[8,16,18,24]tetraen]-15′-one 13′,13′-dioxide]	–	–	0.086 nM	52 nM	–
C[C@@H]1[C@@H](C)C/C=C/[C@@](O)(CC(=O)N(C)C)[C@@H]2CC[C@H]2CN2C[C@@]3(CCCc4cc(Cl)ccc43)COc3ccc(cc32)C(=O)NS1(=O)=O [Example 100077, 2-((1S,3′R,6′R,7′S,8′E,11′S,12′R)-6-chloro-7′-hydroxy-11′,12′-dimethyl-13′,13′-dioxido-15′-oxo-3,4-dihydro-2H-spiro[naphthalene-1,22′-[20]oxa[13]thia[1,14]diazatetracyclo [14.7.2.0~3,6~.0~19,24~]pentacosa[8,16,18,24]tetraen]-7′-yl)-N,N-dimethylacetamide]	0.19 nM	–	–	–	IC50 [2, 7]: 52 nM
C[C@@H]1[C@@H](C)CCC[C@](O)(CC(=O)N(C)C(C)(C)C)[C@@H]2CC[C@H]2CN2C[C@@]3(CCCc4cc(Cl)ccc43)COc3ccc(cc32)C(=O)NS1(=O)=O (single isomer, unassigned) [Example 100142]	0.717 nM	–	–	–	IC50 [2, 7]: 663 nM
CO[C@@]1(CC(=O)N2CCN(C)C[C@H]2C)/C=C/C[C@H](C)[C@@H](C)S(=O)(=O)NC(=O)c2ccc3c(c2)N(C[C@@H]2CC[C@H]21)C[C@@]1(CCCc2cc(Cl)ccc21)CO3 (single isomer, unassigned) [Example 100480]	0.176 nM	–	–	–	IC50 [2, 7]: 221 nM
CCOP(=O)(OCC)C(F)(F)[C@]1(O)/C=C/C[C@H](C)[C@@H](C)S(=O)(=O)NC(=O)c2ccc3c(c2)N(C[C@@H]2CC[C@H]21)C[C@@]1(CCCc2cc(Cl)ccc21)CO3 [Example 100067, diethyl (((1S,3′R,6′R,7′S,8′E,11′S,12′R)-6-chloro-7′-hydroxy-11′,12′-dimethyl-13′,13′-dioxido-15′-oxo-3,4-dihydro-2H-spiro[naphthalene-1,22′-[20]oxa[13]thia[1,14]diazatetracyclo [14.7.2.0~3,6~.0~19,24~]pentacosa[8,16,18,24]tetraen]-7′-yl)(difluoro)methyl)phosphonate]	1.01 nM	–	–	–	IC50 [2, 7]: 271 nM
CO[C@@]1(CN2CCN3CCN(S(C)(=O)=O)C[C@@H]3C2)/C=C/C[C@H](C)[C@@H](C)S(=O)(=O)NC(=O)c2ccc3c(c2)N(C[C@@H]2CC[C@H]21)C[C@@]1(CCCc2cc(Cl)ccc21)CO3 (single isomer, unassigned) [Example 244]	–	–	1.65 nM	–	IC50 ([2]; read-out: OPM-2 10% FBS IC50 IP, OPM-2 cells, 10% FBS, 16 h incubation): 638 nM
C[C@@H]1[C@@H](C)CCC[C@](C)(CO)[C@@H]2CC[C@H]2CN2C[C@@]3(CCCc4cc(Cl)ccc43)COc3ccc(cc32)C(=O)NS1(=O)=O [Example 100301, (1S,3′R,6′R,7′S,11′S,12′R)-6-chloro-7′-(hydroxymethyl)-7′,11′,12′-trimethyl-3,4-dihydro-2H,15′H-spiro[naphthalene-1,22′-[20]oxa[13]thia[1,14]diazatetracyclo [14.7.2.0~3,6~.0~19,24~]pentacosa[16,18,24]trien]-15′-one 13′,13′-dioxide]	1.31 nM	1930 nM	–	–	–
CC[C@@H]1CCCC[C@](CO)(OC)[C@@H]2CC[C@H]2CN2C[C@@]3(CCCc4cc(Cl)ccc43)COc3ccc(cc32)C(=O)NS1(=O)=O [Example 100041, (1S,3′R,6′R,7′S,12′R)-6-chloro-12′-ethyl-7′-(hydroxymethyl)-7′-methoxy-3,4-dihydro-2H,15′H-spiro[naphthalene-1,22′-[20]oxa[13]thia[1,14]diazatetracyclo [14.7.2.0~3,6~.0~19,24~]pentacosa[16,18,24]trien]-15′-one 13′,13′-dioxide]	3.36 nM	4990 nM	–	–	–
